One test deals with WDR5 (Homo sapiens, UniProt P61964). Put plainly: TR-FRET competition binding assay, displacement of 10mer-Thr-FAM MLL peptide probe from His-tagged WDR5. Particulars: WDR5-His tag (residues 24-334) 2 nM; 10mer-Thr-FAM 150 nM; 60 min, room temperature; read-out: Ki for Inhibition of WDR5 by TR-FRET assay. Background: In TR-FRET formats the signal depends on donor and acceptor labels being close together.

Test [1] deals with MV4:11 human cancer cell lines. The experiment in a line: Cellular viability / anti-proliferative assay, CellTiter-Glo, 5 day protocol. Particulars: Homo sapiens, MV4-11, 120 h, MV4:11 cells; 5 day incubation; CellTiter-Glo; mean of at least two replicates; read-out: GI50 on cellular proliferation of MV4:11 human cancer cell lines. The class given is cell-based. Put shortly:
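MV-4-11 cells in IMDM with 10% FBS, 200 cells/well, exposed 5 days to 22 two-fold dilutions from 30 μM, final DMSO 0.3%. Viability read by CellTiter-Glo luminescence; GI50 from sigmoidal dose-response fit, mean of at least two replicates.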
(ATP-based viability assays read luminescence as a measure of living cells.)

Take `CNC(=O)c1cc(N2CCc3c(cc(Cn4ccnc4)cc3-c3cn(C)nc3C(F)(F)F)C2=O)c2cc(OC)ccc2n1` [Example 237, 4-(7-((1H-Imidazol-1-yl)methyl)-5-(1-methyl-3-(trifluoromethyl)-1H-pyrazol-4-yl)-1-oxo-3,4-dihydroisoquinolin-2(1H)-yl)-6-methoxy-N-methylquinoline-2-carboxamide]: on WDR5, the Ki – broadly, a measure of affinity in units of concentration, obtained from inhibition or displacement – is below 0.02 nM. Also, the GI50 in test [1] was determined as 51 nM.
Consider `CCc1cc(CN(C)C(C)=O)c2nccc(N3CCc4c(cc(Cn5ccnc5)cc4-c4cn(C)nc4C(F)(F)F)C3=O)c2c1` [Example 238], for which the Ki at WDR5 is below 0.02 nM. The GI50 in test [1] was 30 nM.
For the compound `CCc1cc(CNC(C)=O)c2nccc(N3CCc4c(cc(Cn5ccnc5)cc4-c4cn(C)nc4C(F)(F)F)C3=O)c2c1` [Example 240, N-((4-(7-((1H-Imidazol-yl)methyl)-5-(1-methyl-3-(trifluoromethyl)-1H-pyrazol-4-yl)-1-oxo-3,4-dihydroisoquinolin-2(1H)-yl)-6-ethylquinolin-8-yl)methyl)acetamide], the Ki at WDR5 is below 0.02 nM. For the same compound, in test [1], the GI50 was determined as 23 nM.
For `COc1cc(C(=O)NC2CN(C(=O)c3ccncc3)C2)c2nccc(N3CCc4c(cc(Cn5ccnc5)cc4-c4cn(C)nc4C(F)(F)F)C3=O)c2c1` [Example 242, 4-(7-((1H-Imidazol-1-yl)methyl)-5-(1-methyl-3-(trifluoromethyl)-1H-pyrazol-4-yl)-1-oxo-3,4-dihydroisoquinolin-2(1H)-yl)-N-(1-isonicotinoylazetidin-3-yl)-6-methoxyquinoline-8-carboxamide], the Ki on WDR5 is below 0.02 nM. In test [1], the GI50 is 29 nM.

The values are drawn from patent publication US12692249B2, “WDR5 inhibitors and modulators” (Vanderbilt University, priority 2019, dated 2026).
